# In US20110059123A1, “Inhibition of the Survival of Colorectal Cancer by Cyclohexenone Compounds from Antrodia Camphorata” (GOLDEN BIOTECHNOLOGY CORPORATION, priority 2009, published 2011):
# System: colorectal cancer cell line WiDr
# Experiment: In vitro survival assay (MTT) for anti-colorectal cancer effects
# Type: cell-based
# Details: WiDr human colon adenocarcinoma cells, 48 hours treatment, survival rate
# Description: Inhibiting effects of colorectal cancer cells by cyclohexenone compounds of Antrodia camphorata from example 1 were assessed according to the anticancer-drug screening model of National Cancer Institute (NCI). The compound 4-hydroxy-2,3-dimethoxy-6-methyl-5-(3,7,11-trimethyl-dodeca-2,6,10-trienyl)-cyclohex-2-enone from example 1 was added into the culture media of colorectal cancer cell line WiDr to determine the survival rates. Survival of cell was analyzed using MTT assay. WiDr cell line was a human colon adenocarcinoma cell line.
# MTT assay is commonly used to analyze cell proliferation, survival rate of viable cells and cytotoxicity. MTT (3[4,5-dimethylthiazol-2-yl]-2,5-diphenyltetrazolium bromide) is a yellow dye which can be converted to water-insoluble purple formazan on the reductive cleavage of its tetrazolium ring by the succinate tetrazolium reductase in mitochondria of cells. The amount of formazan produced is used to detect the number of viable cells and calculate the survival rates.
# The WiDr cells were cultivated in RPMI 1640 medium supplemented with 10% fetal bovine serum, 100 IU/ml of Penicillin and […] of Streptomycin at 37° C., 5% CO2 for 24 hours. Proliferated cells were washed once with PBS, treated with 1× trypsin-EDTA, and centrifuged at 1200 rpm for 5 min. […] The absorbances were measured at 570 nm with an ELISA Reader to determine the survival rates.
smiles,measurement,value
"COC1=C(OC)C(O)C(C/C=C(\C)CC/C=C(\C)CCC=C(C)C)C(C)C1=O (stereo not shown) [formula 2, 4-hydroxy-2,3-dimethoxy-6-methyl-5-(3,7,11-trimethyl-dodeca-2,6,10-trienyl)-cyclohex-2-enone]",IC50,0.92 µg/mL
